Reference: the kinase profiling compilation of Christmann-Franck et al. (2016)

Assays:
Assay in all cases: radiometric filter-binding kinase assay, Kinase HotSpot
Details in all cases: compound 0.5 µM; ATP 10 µM
GRK7 (human) = GRK7 (human) (UniProt Q8WTQ7)
IRAK4 (human) = IRAK4 (human) (UniProt Q9NWZ3)
TXK (human) = TXK (human) (UniProt P42681)
PIM3 (human) = PIM3 (human) (UniProt Q86V86)
PIM2 (human) = PIM2 (human) (UniProt Q9P1W9)
PASK (human) = PASK (human) (UniProt Q96RG2)
TYRO3 (human) = TYRO3 (human) (UniProt Q06418)
TGFBR1 (human) = TGFBR1 (human) (UniProt P36897)
BTK (human) = BTK (human) (UniProt Q06187)
OXSR1 (human) = OXSR1 (human) (UniProt O95747)
NEK6 (human) = NEK6 (human) (UniProt Q9HC98)
MAP3K5 (human) = MAP3K5 (human) (UniProt Q99683)
TNK2 (human) = TNK2 (human) (UniProt Q07912)
PBK (human) = PBK (human) (UniProt Q96KB5)
NEK11 (human) = NEK11 (human) (UniProt Q8NG66)
NEK11 (human), sequence (Q8NG66 whole entry, looked up): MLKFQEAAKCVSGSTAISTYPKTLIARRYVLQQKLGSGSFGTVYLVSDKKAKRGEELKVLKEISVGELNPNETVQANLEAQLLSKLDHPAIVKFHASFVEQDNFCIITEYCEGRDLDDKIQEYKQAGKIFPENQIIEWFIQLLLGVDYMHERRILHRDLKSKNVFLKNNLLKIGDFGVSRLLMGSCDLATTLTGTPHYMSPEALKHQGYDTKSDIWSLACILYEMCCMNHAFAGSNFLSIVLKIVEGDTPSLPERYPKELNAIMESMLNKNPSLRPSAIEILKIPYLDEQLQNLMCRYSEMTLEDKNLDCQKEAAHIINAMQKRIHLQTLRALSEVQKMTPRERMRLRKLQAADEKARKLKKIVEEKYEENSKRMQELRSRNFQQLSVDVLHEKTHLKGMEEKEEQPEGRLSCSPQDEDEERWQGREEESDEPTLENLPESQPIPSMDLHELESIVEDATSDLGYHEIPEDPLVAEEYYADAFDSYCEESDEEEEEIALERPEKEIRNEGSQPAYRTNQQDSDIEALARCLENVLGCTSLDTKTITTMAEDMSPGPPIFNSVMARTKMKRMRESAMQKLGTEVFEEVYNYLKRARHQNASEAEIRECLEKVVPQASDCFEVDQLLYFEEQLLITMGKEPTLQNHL

TAOK1 (human) = TAOK1 (human) (UniProt Q7L7X3)
TAOK1 (human), sequence (Q7L7X3 whole entry, looked up): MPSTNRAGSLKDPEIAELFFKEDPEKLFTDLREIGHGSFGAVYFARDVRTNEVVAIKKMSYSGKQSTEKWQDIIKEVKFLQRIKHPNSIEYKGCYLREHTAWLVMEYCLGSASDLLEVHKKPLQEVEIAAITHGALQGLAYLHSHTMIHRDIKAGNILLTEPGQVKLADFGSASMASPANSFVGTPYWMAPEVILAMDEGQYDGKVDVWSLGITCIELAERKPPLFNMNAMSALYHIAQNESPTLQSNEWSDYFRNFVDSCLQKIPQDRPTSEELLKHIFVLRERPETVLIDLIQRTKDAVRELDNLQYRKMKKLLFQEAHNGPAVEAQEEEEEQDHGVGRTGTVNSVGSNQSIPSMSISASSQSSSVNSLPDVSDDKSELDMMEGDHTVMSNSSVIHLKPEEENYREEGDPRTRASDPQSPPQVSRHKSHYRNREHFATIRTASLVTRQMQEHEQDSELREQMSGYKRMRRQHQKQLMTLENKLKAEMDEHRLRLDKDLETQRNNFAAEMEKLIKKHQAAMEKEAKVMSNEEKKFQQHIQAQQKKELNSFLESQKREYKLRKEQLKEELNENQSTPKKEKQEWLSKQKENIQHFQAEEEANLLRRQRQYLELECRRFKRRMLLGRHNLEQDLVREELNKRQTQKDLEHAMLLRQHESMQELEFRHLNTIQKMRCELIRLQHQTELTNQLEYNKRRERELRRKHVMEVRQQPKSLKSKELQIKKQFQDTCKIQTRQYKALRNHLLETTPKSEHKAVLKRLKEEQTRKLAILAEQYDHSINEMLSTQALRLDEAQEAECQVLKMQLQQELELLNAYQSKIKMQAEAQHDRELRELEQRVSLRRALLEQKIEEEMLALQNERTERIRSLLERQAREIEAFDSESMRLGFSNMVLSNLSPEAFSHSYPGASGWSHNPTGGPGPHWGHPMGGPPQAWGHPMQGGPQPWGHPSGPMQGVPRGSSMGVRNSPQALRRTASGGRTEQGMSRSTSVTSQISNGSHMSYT

PRKCA (human) = PRKCA (human) (UniProt P17252)
MAPK10 (human) = MAPK10 (human) (UniProt P53779)
GRK4 (human) = GRK4 (human) (UniProt P32298)
NEK3 (human) = NEK3 (human) (UniProt P51956)
PLK1 (human) = PLK1 (human) (UniProt P53350)
ITK (human) = ITK (human) (UniProt Q08881)
INSR (human) = INSR (human) (UniProt P06213)
MAP3K8 (human) = MAP3K8 (human) (UniProt P41279)
MYO3B (human) = MYO3B (human) (UniProt Q8WXR4)
FGFR4 (human) = FGFR4 (human) (UniProt P22455)
FGFR4 (human), sequence (P22455 whole entry, looked up): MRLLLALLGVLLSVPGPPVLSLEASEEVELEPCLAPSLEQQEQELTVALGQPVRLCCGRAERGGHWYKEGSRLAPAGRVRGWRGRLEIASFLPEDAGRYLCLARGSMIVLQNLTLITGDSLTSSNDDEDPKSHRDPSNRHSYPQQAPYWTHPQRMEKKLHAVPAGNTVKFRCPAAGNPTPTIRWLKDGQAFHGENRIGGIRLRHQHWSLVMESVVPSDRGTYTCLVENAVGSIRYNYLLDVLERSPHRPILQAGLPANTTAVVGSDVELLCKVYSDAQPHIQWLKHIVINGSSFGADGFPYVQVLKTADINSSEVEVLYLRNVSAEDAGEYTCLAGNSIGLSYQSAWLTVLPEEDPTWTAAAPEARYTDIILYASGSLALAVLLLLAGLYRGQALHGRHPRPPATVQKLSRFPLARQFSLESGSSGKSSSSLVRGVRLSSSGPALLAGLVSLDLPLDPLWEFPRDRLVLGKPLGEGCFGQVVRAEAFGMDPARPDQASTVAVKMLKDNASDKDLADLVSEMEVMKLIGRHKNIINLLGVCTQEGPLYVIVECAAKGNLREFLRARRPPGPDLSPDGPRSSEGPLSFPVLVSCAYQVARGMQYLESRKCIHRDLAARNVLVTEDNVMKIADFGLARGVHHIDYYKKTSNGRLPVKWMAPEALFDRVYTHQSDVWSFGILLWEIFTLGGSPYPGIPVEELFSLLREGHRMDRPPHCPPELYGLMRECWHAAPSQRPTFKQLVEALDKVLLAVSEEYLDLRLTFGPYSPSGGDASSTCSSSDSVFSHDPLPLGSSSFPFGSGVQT

ULK3 (human) = ULK3 (human) (UniProt Q6PHR2)
[1] = molecular target: TYK2 JH1 catalytic (human) (UniProt P29597)
CHEK1 (human) = CHEK1 (human) (UniProt O14757)
RPS6KB1 (human) = RPS6KB1 (human) (UniProt P23443)
RPS6KB1 (human), sequence (P23443 whole entry, looked up): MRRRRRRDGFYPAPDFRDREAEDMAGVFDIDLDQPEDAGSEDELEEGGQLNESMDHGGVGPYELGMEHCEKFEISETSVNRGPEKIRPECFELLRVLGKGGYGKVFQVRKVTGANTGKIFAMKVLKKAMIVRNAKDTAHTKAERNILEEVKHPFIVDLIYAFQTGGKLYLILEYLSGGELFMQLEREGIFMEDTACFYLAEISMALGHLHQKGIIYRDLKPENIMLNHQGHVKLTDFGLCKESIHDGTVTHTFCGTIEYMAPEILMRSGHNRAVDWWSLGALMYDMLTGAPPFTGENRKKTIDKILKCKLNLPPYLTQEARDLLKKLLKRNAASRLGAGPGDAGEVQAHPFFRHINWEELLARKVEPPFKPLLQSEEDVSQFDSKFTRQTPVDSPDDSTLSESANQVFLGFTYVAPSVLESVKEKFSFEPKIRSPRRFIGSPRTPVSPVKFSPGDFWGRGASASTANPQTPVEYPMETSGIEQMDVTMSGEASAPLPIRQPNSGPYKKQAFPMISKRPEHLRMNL

ADRBK2 (human) = ADRBK2 (human) (UniProt P35626)
CDK4 CCND3 (human) = CDK4 CCND3 (human) (UniProt P30281+P11802)
CDK4 CCND3 (human), sequence (P11802 whole entry, looked up): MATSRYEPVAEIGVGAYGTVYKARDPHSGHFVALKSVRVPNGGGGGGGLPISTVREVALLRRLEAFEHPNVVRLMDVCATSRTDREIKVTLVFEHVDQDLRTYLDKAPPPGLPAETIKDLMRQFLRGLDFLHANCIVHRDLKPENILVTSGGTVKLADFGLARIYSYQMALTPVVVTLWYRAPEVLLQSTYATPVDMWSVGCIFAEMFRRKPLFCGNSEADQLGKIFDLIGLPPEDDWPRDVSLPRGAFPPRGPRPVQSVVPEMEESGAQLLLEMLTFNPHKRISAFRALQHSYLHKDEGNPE
CDK4 CCND3 (human), sequence (P30281 whole entry, looked up): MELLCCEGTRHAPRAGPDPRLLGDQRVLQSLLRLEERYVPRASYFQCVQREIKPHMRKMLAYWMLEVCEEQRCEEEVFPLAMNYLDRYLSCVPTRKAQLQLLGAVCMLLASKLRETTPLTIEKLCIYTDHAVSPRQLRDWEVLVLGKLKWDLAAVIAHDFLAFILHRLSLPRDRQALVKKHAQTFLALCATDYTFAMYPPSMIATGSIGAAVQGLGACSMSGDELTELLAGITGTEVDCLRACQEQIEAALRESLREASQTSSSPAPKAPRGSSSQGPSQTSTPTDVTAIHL

RPS6KA1 KD1 KD2 (human) = RPS6KA1 KD1 KD2 (human) (UniProt Q15418)
RPS6KA1 KD1 KD2 (human), sequence (Q15418 whole entry, looked up): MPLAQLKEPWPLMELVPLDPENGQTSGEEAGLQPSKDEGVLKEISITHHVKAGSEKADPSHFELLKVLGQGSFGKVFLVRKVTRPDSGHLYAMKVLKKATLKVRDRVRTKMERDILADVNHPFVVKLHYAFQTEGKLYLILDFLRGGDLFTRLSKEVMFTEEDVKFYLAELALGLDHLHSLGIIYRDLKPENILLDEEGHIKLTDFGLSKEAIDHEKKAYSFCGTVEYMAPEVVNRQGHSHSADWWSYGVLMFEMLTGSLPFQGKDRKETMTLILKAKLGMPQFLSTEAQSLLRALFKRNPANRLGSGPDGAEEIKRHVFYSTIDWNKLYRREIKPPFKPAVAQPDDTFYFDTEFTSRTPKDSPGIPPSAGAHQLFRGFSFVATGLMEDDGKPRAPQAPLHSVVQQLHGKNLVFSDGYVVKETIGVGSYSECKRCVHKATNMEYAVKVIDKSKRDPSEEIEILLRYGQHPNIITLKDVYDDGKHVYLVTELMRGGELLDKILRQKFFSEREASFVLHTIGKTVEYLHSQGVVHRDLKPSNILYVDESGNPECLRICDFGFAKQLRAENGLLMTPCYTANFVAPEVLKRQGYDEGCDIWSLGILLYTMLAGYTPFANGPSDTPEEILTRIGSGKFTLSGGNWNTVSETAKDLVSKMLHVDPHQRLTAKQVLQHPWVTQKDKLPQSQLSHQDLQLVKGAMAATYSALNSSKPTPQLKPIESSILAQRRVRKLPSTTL

YES1 (human) = YES1 (human) (UniProt P07947)
HCK (human) = HCK (human) (UniProt P08631)
MAP2K1 (human) = MAP2K1 (human) (UniProt Q02750)
NEK2 (human) = NEK2 (human) (UniProt P51955)
PRKD1 (human) = PRKD1 (human) (UniProt Q15139)
MAPKAPK3 (human) = MAPKAPK3 (human) (UniProt Q16644)
MARK4 (human) = MARK4 (human) (UniProt Q96L34)
TGFBR2 (human) = TGFBR2 (human) (UniProt P37173)
TGFBR2 (human), sequence (P37173 whole entry, looked up): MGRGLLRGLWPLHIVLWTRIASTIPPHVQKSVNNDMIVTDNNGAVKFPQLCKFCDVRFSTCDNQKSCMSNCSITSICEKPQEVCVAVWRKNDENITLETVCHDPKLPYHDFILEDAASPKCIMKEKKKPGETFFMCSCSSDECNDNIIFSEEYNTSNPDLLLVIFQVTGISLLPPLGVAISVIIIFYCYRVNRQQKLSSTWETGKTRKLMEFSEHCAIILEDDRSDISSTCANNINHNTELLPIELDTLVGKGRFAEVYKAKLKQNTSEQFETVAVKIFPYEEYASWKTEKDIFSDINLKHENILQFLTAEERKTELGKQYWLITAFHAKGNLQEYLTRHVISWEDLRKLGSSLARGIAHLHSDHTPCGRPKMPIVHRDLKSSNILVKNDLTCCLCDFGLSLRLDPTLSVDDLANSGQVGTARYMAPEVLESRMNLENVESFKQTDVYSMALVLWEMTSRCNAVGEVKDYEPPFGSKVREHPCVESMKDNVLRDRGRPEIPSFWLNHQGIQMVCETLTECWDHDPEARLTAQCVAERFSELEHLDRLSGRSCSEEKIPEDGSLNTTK

SIK2 (human) = SIK2 (human) (UniProt Q9H0K1)

For `CCN(CC)CCNC(=O)c1c(C)[nH]c(/C=C2\C(=O)Nc3ccc(Cl)cc32)c1C`, the residual activity (GRK7 (human)) was 62.2%, the residual activity (IRAK4 (human)) was 22.7% and the residual activity (TXK (human)) was 79.5%. It also gave a residual activity (PIM3 (human)) of 74%, a residual activity (PIM2 (human)) of 101% and a residual activity (PASK (human)) of 89.6%. For the same compound, the residual activity (TYRO3 (human)) was 23.2%, the residual activity (TGFBR1 (human)) was 95.5% and the residual activity (BTK (human)) was 58.3%. The residual activity (OXSR1 (human)) was 80.1%, the residual activity (NEK6 (human)) was 97.8% and the residual activity (MAP3K5 (human)) was 98.1%. For the same compound, the residual activity (TNK2 (human)) was 22.6%, the residual activity (PBK (human)) was 104% and the residual activity (NEK11 (human)) was 83.4%. The residual activity (TAOK1 (human)) was 65.8%, the residual activity (PRKCA (human)) was 93.1% and the residual activity (MAPK10 (human)) was 104%. The residual activity (GRK4 (human)) was 80.8%, the residual activity (NEK3 (human)) was 94% and the residual activity (PLK1 (human)) was 105%. For the same compound, the residual activity (ITK (human)) was 30%, the residual activity (INSR (human)) was 30.1% and the residual activity (MAP3K8 (human)) was 113%. It also gave a residual activity (MYO3B (human)) of 41.3%, a residual activity (FGFR4 (human)) of 70.5% and a residual activity (ULK3 (human)) of 21.6%. For the same compound, the residual activity [1] was 30.8%, the residual activity (CHEK1 (human)) was 15.1% and the residual activity (RPS6KB1 (human)) was 41.7%. For the same compound, the residual activity (ADRBK2 (human)) was 97.8%, the residual activity (CDK4 CCND3 (human)) was 86.3% and the residual activity (RPS6KA1 KD1 KD2 (human)) was 13.1%. The residual activity (YES1 (human)) was 5.29%, the residual activity (HCK (human)) was 34.3% and the residual activity (MAP2K1 (human)) was 33.1%. It also gave a residual activity (NEK2 (human)) of 77.2%, a residual activity (PRKD1 (human)) of 11.3% and a residual activity (MAPKAPK3 (human)) of 101%. For the same compound, the residual activity (MARK4 (human)) was 7.19%, the residual activity (TGFBR2 (human)) was 113% and the residual activity (SIK2 (human)) was 42.7%.
